Test systems include HCC-2998 colon; DU-145 prostate; M14 melanoma; TK-10 renal; SNB-19 CNS; MALME-3M melanoma; A498 renal; COLO 205 colon; A549 NSCLC; RPMI-8226 leukemia.
Holding throughout (assay): NCI tumour cell line growth inhibition, 48 h

Nine compounds from PubChem BioAssay (NCI) can be followed below.

Structures are written as SMILES.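 Five compound concentrations were applied to cells in 96-well plates for 48 hours; endpoints were derived by simple linear interpolation of the resulting dose-response curve. The concentration for 50% growth inhibition is given as GI50. At the TGI there is no net growth.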 Bounds are passed on as bounds.

On to `[O]=[W](=[O])([OH])[OH]`, for which the GI50 with HCC-2998 colon, with DU-145 prostate, in the experiment on M14 melanoma, in the experiment with TK-10 renal, in the experiment with SNB-19 CNS and in the experiment on MALME-3M melanoma was > 100 µM each time. Also, the GI50 in the experiment with A498 renal is > 100 µM; in the experiment on COLO 205 colon, > 100 µM; in the experiment with A549 NSCLC it was > 100 µM; in the experiment on RPMI-8226 leukemia, > 100000 nM. In addition, the TGI with HCC-2998 colon, in the experiment on DU-145 prostate, with M14 melanoma, in the experiment on TK-10 renal, in the experiment with SNB-19 CNS and in the experiment on MALME-3M melanoma was > 100 µM in each case. In addition, the TGI in the experiment with A498 renal, in the experiment on COLO 205 colon, in the experiment with A549 NSCLC and with RPMI-8226 leukemia was > 100 µM throughout.

In the case of `CC(C)NCCCCCNc1cc(O)cc2cccnc12`, the GI50 in the experiment on HCC-2998 colon is > 44.2 µM; in the experiment with DU-145 prostate, > 100 µM; in the experiment on M14 melanoma, > 100 µM; with TK-10 renal, > 100 µM; with SNB-19 CNS, > 100 µM; with COLO 205 colon, 1.88 µM. The results for the GI50 with A549 NSCLC and in the experiment with RPMI-8226 leukemia were > 100 µM and > 23100 nM, respectively. The TGI in the experiment on HCC-2998 colon, in the experiment on DU-145 prostate, in the experiment on M14 melanoma, with TK-10 renal, in the experiment on SNB-19 CNS and in the experiment on MALME-3M melanoma was > 100 µM throughout. For the same compound, the TGI with A498 renal, with COLO 205 colon, in the experiment on A549 NSCLC and with RPMI-8226 leukemia was > 100 µM in each case.

For the compound `C/C=C(\C)C(=O)OC1C2C(C)C(=O)OC2C(O)C(C)C2C=CC(=O)C21C` (stereo not given), the TGI in the experiment with HCC-2998 colon was determined as 29.8 µM; in the experiment on DU-145 prostate it was 24.7 µM; in the experiment with M14 melanoma it was 31.3 µM; in the experiment with TK-10 renal, 26.9 µM; in the experiment with SNB-19 CNS it was 26.3 µM; with MALME-3M melanoma it was 27 µM. Besides, the TGI in the experiment with A498 renal is 53.3 µM; with COLO 205 colon, 26.3 µM; with A549 NSCLC it was 61.3 µM; in the experiment with RPMI-8226 leukemia, 32.1 µM.

Turning to `CCNC(=O)c1ccc2c(c1)nc(-c1ccc(Cl)cc1)n2-c1cc(C(C)(C)C)[nH]n1`, the GI50 in the experiment on HCC-2998 colon is 3.96 µM; in the experiment with DU-145 prostate it was 3.72 µM; with M14 melanoma it was 2.97 µM; with TK-10 renal it was 6.14 µM; in the experiment with SNB-19 CNS, 3.97 µM; with MALME-3M melanoma, 3.47 µM. Besides, the GI50 in the experiment on A498 renal is 2.24 µM; with COLO 205 colon it was 3.5 µM; with A549 NSCLC, 3.19 µM; in the experiment on RPMI-8226 leukemia, 2840 nM. The TGI was 26.7 µM in the experiment on HCC-2998 colon; 34.9 µM with DU-145 prostate; 10.8 µM in the experiment with M14 melanoma; 71.3 µM in the experiment on TK-10 renal; > 100 µM in the experiment on SNB-19 CNS; 17.2 µM in the experiment with MALME-3M melanoma. For the same compound, the TGI was determined as 6.53 µM in the experiment with A498 renal, 14.4 µM with COLO 205 colon, 31.9 µM in the experiment with A549 NSCLC and 14.1 µM in the experiment on RPMI-8226 leukemia.

`O=C(Nc1cccc(-n2cc(-c3ccncc3)c(-c3ccc(O)c(Cl)c3)n2)c1)c1ccc(N2CCOCC2)c(C(F)(F)F)c1`: the GI50 in the experiment on HCC-2998 colon was 3.44 µM; in the experiment with DU-145 prostate it was > 50 µM; in the experiment with M14 melanoma, 2.75 µM; in the experiment with TK-10 renal, > 50 µM; with SNB-19 CNS it was > 50 µM; in the experiment on MALME-3M melanoma it was 2.8 µM. Besides, the GI50 was > 50 µM in the experiment on A498 renal, 4.62 µM in the experiment with COLO 205 colon, 2 µM in the experiment on A549 NSCLC and 1040 nM with RPMI-8226 leukemia. The TGI in the experiment on HCC-2998 colon, with DU-145 prostate, in the experiment with M14 melanoma, with TK-10 renal, in the experiment with SNB-19 CNS and in the experiment on MALME-3M melanoma was > 50 µM in each case. Moreover, the TGI in the experiment with A498 renal was > 50 µM; in the experiment on COLO 205 colon, > 50 µM; in the experiment on A549 NSCLC it was > 50 µM; in the experiment with RPMI-8226 leukemia, 4.24 µM.

Consider `COC(=O)c1cc(NC(=O)CN(CCN(CC(=O)O)CC(=O)Nc2ccc(O)c(C(=O)OC)c2)CC(=O)O)ccc1O`, for which the GI50 was 97.4 µM in the experiment on HCC-2998 colon; 31.9 µM in the experiment with DU-145 prostate; 41.9 µM in the experiment with M14 melanoma; > 100 µM in the experiment with TK-10 renal; 41.9 µM in the experiment on SNB-19 CNS; > 100 µM in the experiment with MALME-3M melanoma. Also, the GI50 in the experiment on A498 renal was 71.7 µM; in the experiment with COLO 205 colon, 72 µM; with A549 NSCLC, 64.8 µM; in the experiment on RPMI-8226 leukemia, > 100000 nM. Moreover, the TGI with HCC-2998 colon, in the experiment on DU-145 prostate, with M14 melanoma, in the experiment with TK-10 renal, with SNB-19 CNS and in the experiment on MALME-3M melanoma was > 100 µM each time. For the same compound, the TGI in the experiment with A498 renal, in the experiment with COLO 205 colon, in the experiment on A549 NSCLC and in the experiment with RPMI-8226 leukemia was > 100 µM each time.

Regarding `CS(=O)(=O)c1ccc(-c2[nH]c3ccc(F)cc3c2/C=N/NC(N)=S)cc1`, the GI50 is 2.95 µM with HCC-2998 colon; 2.24 µM with DU-145 prostate; 0.312 µM in the experiment on M14 melanoma; 5.88 µM in the experiment with TK-10 renal; 1.31 µM with SNB-19 CNS; 7.83 µM with MALME-3M melanoma. Further, the GI50 in the experiment on A498 renal was 0.347 µM; in the experiment with COLO 205 colon it was 1.47 µM; with A549 NSCLC, 2.86 µM; with RPMI-8226 leukemia, 475 nM. In addition, the TGI was 14.7 µM with HCC-2998 colon; > 100 µM with DU-145 prostate; 22.3 µM with M14 melanoma; > 100 µM with TK-10 renal; > 100 µM in the experiment on SNB-19 CNS; 41 µM in the experiment with MALME-3M melanoma. The TGI with A498 renal was 5.18 µM; with COLO 205 colon, 5.14 µM; with A549 NSCLC, > 100 µM; in the experiment on RPMI-8226 leukemia, 6.64 µM.

With `CCCC(=O)Nc1ncnc2c1ncn2C1OC2COP(=O)(O)OC2C1OC(=O)CCC` (stereo not given), the GI50 in the experiment on HCC-2998 colon, with DU-145 prostate, in the experiment with M14 melanoma, in the experiment on SNB-19 CNS, in the experiment on MALME-3M melanoma and with COLO 205 colon was > 1000 µM in each case. The GI50 in the experiment on A549 NSCLC is > 1000 µM. Moreover, the TGI in the experiment with HCC-2998 colon, in the experiment on DU-145 prostate, in the experiment on M14 melanoma, in the experiment with TK-10 renal, in the experiment with SNB-19 CNS and in the experiment on MALME-3M melanoma was > 1000 µM throughout. Moreover, the TGI is 92.8 µM with A498 renal, > 1000 µM in the experiment on COLO 205 colon, > 1000 µM in the experiment on A549 NSCLC and > 1000 µM with RPMI-8226 leukemia.

With `O=c1cc(-c2ccccc2)nc2cc(-c3ccco3)[nH]n12`, the GI50 in the experiment with HCC-2998 colon was 13.3 µM; in the experiment on DU-145 prostate, 19.5 µM; with M14 melanoma, 9.45 µM; with TK-10 renal, 19.8 µM; with SNB-19 CNS, 12.6 µM; with MALME-3M melanoma it was 3.47 µM. Besides, the GI50 was 3.6 µM with A498 renal, 6.65 µM in the experiment on COLO 205 colon, 12.6 µM in the experiment with A549 NSCLC and 13700 nM in the experiment with RPMI-8226 leukemia. Further, the TGI was > 100 µM with HCC-2998 colon; 79.7 µM in the experiment with DU-145 prostate; > 100 µM with M14 melanoma; 96.9 µM in the experiment with TK-10 renal; > 100 µM with SNB-19 CNS; 94.5 µM with MALME-3M melanoma. For the same compound, the TGI was 28.6 µM with A498 renal, 44 µM in the experiment with COLO 205 colon, > 100 µM with A549 NSCLC and 89.9 µM with RPMI-8226 leukemia.
